Results as given in PMC7930289 (Heliyon, 2021).

Tests used:
Na+/K+-ATPase = settings: read-out: Ki (Na+/K+-ATPase activity); cited from earlier work
[1] = molecular target: hPMCA4 overexpressed in HEK293T cells (Homo sapiens, UniProt P23634); experiment: Dynamics of cytoplasmic Ca2+ in HEK293T cells overexpressing hPMCA4; format: cell-based; settings: 50 μM, 30 min; for AUC of [Ca2+]CYT after TG addition: 2 μM TG
Sequence of hPMCA4 overexpressed in HEK293T cells (P23634 1-1205 isoform P23634-6): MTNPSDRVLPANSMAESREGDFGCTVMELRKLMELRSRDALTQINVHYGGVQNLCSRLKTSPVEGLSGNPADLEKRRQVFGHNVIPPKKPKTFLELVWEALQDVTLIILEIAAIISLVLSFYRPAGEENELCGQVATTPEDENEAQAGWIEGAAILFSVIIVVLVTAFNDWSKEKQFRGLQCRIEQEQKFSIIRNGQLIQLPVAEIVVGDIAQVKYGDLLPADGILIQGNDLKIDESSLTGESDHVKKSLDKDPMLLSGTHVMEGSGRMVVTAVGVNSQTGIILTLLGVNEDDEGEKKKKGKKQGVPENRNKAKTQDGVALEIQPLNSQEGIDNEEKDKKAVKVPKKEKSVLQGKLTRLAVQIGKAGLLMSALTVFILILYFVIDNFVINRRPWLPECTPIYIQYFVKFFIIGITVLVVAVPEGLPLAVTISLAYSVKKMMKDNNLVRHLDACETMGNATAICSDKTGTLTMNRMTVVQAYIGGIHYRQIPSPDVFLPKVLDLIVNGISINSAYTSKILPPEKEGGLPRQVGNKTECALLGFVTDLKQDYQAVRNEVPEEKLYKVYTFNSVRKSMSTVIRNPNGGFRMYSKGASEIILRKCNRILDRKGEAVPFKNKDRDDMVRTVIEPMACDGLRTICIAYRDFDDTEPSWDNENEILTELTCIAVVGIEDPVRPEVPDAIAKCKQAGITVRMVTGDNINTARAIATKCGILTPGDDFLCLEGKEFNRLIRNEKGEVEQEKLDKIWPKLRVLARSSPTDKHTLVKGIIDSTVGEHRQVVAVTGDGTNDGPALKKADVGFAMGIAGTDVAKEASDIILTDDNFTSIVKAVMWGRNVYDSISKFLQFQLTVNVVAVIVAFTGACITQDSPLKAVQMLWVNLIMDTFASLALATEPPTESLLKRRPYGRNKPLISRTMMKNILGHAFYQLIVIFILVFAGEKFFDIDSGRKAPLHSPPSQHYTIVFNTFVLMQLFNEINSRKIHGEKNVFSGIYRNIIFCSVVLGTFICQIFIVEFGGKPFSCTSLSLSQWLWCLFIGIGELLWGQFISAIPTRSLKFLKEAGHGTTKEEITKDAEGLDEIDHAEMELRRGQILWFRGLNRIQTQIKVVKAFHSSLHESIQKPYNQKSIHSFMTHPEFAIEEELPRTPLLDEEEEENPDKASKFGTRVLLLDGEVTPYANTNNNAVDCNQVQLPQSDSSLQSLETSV

O=C(O[C@@H]1Cc2c(O)cc(O)cc2O[C@@H]1c1cc(O)c(O)c(O)c1)c1cc(O)c(O)c(O)c1 [EGCG, (−)-cis-3,3′,4′,5,5′,7-Hexahydroxy-flavane-3-gallate]
Ki (Na+/K+-ATPase): 1000 nM | hPMCA4 activity in HEK293T cells (Eq. 6) [1]: significantly decreased | AUC of [Ca2+]CYT after TG addition ([1]; HEK293T-hPMCA4 cells): induced an increase in the AUC value | AUC of [Ca2+]CYT after TG addition ([1]; HEK293T-mock cells): no significant effect
